# What was measured:
# [1] = molecular target: T1, copper complexes of Aβ1-42 peptide (Homo sapiens, UniProt P05067); experiment: Hydrogen peroxide produced by Aβ1-42 in the presence of CuCl2, ascorbate, air and ligand (Amplex Red H2O2/HRP); assay type: biochemical; conditions: for amount of H2O2, 0.2 μM Aβ1-42 Cu/Aβ = 2 / amount of H2O2, 0.5 μM Aβ1-42 Cu/Aβ = 0.75: CuCl2 0.4 μM, ascorbate 10 μM, air
# T1 construct: The β-amyloid peptide Aβ1-42 (Aβ1-42) was synthesised, purified (to a purity greater than 95%); made in house; host or cells: chemical peptide synthesis (no expression host)
# [2] = as above; assay type: biochemical; conditions: CuCl2 0.4 μM, ascorbate 10 μM, air
# [3] = tested on: TA98 and TA100 Salmonella strains; experiment: AMES test, statements on both lines; conditions: adapted Ames test, TA98 and/or TA100, absence or presence of S9
# Text: AMES test: The method is adapted from D. M. Maron and B. N. Ames, Mutat.
# The test involves evaluating the potential of the tested molecules to induce mutation which is reverse to the histidine locus of these lines. These two lines were provided by Dr. Bruce N. Ames (University of California, Berkeley, USA). They are resistant to Ampicillin and sensitive to Tetracycline. They are not mutant toward rfa, UvγV and UvγA. The line TA98 (his D3052) contains a mutation of reading phase (GC) whereas the line TA100 (his G46) contains a substitution of base pair (GC).
# The compounds to be tested were dissolved in 100% of DMSO (the solvent) and diluted logarithmically (by a factor of 10) so as to obtain 4 test concentrations of 30,000; 3,000; 300 and 30 μg/ml. Each series of 0.1 ml of stock solution to be tested, 0.1 ml of test line and of culture medium with or without 0.5 ml of enzymatic homogenate (S9) of rat liver microsome were mixed with 2 ml of molten agarose (containing 0.5 mM of histidine and 0.5 mM of biotin). This mixture was placed on the surface of a plate of minimal agarose glucose medium (30 ml for each Petri dish) so as to obtain final concentrations of compound to be tested of 3,000; 300; 30 and 3 μγ/plate. The plates were then incubated at 37° C. for 48 hours. […] The revertant colonies of the test lines were counted using a colony counter (Sigma). […]
# [4] = Number of ZnCl2 equivalents for the ligand to be entirely in the form of Zn(II) complex; assay type: binding; conditions: competition with the tris buffer and the DMSO
# T1 sequence (P05067 672-713 limits assumed, one chain of several): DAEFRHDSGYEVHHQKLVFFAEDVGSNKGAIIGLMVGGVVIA
Structure (SMILES),"amount of H2O2, 0.2 μM Aβ1-42 Cu/Aβ = 2 ([1]; ligand 1 eq/Cu(II) (0.4 μM)) [nmol]","amount of H2O2, 0.5 μM Aβ1-42 Cu/Aβ = 0.75 ([1]; ligand 1 eq/Cu(II) (0.4 μM)) [nmol]","amount of H2O2, without Aβ1-42 ([2]; ligand 1 eq/Cu(II) (0.4 μM)) [nmol]",mutagenic or bactericidal effect [3],"H2O2 production as a function of the Cu/Aβ1-42 ratio ([1]; FIG. 11, 1 equivalent of ligand per Cu(II) (0.4 μM), Aβ1-42 0.2 to 0.53 μM)","amount of H2O2, 0.2 μM Aβ1-42 Cu/Aβ = 2 ([1]; ligand 0.5 eq/Cu(II)) [nmol]","amount of H2O2, 0.2 μM Aβ1-42 Cu/Aβ = 2 ([1]; ligand 1.5 eq/Cu(II)) [nmol]","amount of H2O2, without Aβ1-42 ([2]; ligand 0.5 eq/Cu(II)) [nmol]",number of ZnCl2 equivalent for 15 μM of ligand to be entirely in the form of Zn(II) complex [4] [eq ZnCl2]
"CC(C)(c1ccc2c(Cl)ccc(O)c2n1)c1ccc2c(Cl)ccc(O)c2n1 [Compound 4, 2,2′-(2,2-Propanediyl)-bis(5-chloro-8-hydroxyquinoline)]",0.37 ± 0.09,0.35,0.12,,,,,,
"CC(C)(c1ccc2cccc(O)c2n1)c1ccc2cccc(O)c2n1 [Compound 3, 2,2′-(2,2-propanediyl)-bis(8-hydroxyquinoline)]",0.71 ± 0.02,0.55,0.84,no mutagenic or bactericidal effect,virtually inhibit H2O2 production,0.94,0.49,2.12,
"O=C(c1ccc2cccc(O)c2n1)c1ccc2cccc(O)c2n1 [Compound 6, Bis(8-hydroxy-2-quinoline)methanone]",0.86 ± 0.11,,0.82,,,,,,
"c1cnc2c(Nc3cccc4cccnc34)cccc2c1 [Compound 12, Bis(8-quinoline)amine]",0.47 ± 0.09,,0.40,,,,,,100
"Oc1cccc2ccc(C(F)(F)c3ccc4cccc(O)c4n3)nc12 [Compound 5, 2,2′-(Difluoromethanediyl)-bis(8-hydroxyquinoline)]",0.55 ± 0.08,,0.39,,,,,,

# Source: US20120277265A1, “NOVEL POLYQUINOLINE DERIVATIVES AND THE THERAPEUTIC USE THEREOF” (CENTRE NATIONAL DE LA RECHERCHE SCIENTIFIQUE (C.N.R.S.), priority 2005, published 2012)
